Assays:
[1] = molecular target: Sigma non-opioid intracellular receptor 1 (Rattus norvegicus, UniProt Q9R0C9); assay: Binding affinity for sigma-1 receptor by displacing [3H]-(+) pentazocine
Sigma 2 receptor = assay: Binding affinity for sigma-2 receptor by displacing [3H]DTG in presence of dextrallorphan; set-up: species or system Rattus norvegicus

Sigma non-opioid intracellular receptor 1, sequence (Q9R0C9 whole entry): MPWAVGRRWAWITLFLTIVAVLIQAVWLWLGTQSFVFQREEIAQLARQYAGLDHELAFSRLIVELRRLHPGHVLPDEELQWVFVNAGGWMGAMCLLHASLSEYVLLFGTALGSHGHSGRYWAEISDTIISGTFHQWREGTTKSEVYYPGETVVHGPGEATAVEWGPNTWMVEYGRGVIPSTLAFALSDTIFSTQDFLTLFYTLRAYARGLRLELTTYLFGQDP

Compound	Ki [1] [nM]	Ki (Sigma 2 receptor) [nM]
c1ccc(CCN2CCN(c3ccccn3)CC2)cc1	326	119
CC1CCCN(CCc2ccccc2)C1 (stereo not given)	4.15	84.4
c1ccc(CCN2CCc3ccccc3C2)cc1	5.9	57.3
CC1CCN(CCc2ccccc2)CC1	20.9	33.3
c1ccc(CCN2CCCCC2)cc1 [1-PHENETHYLPIPERIDINE]	88.5	112

More lines, now with the values ahead:

Ki [1] [nM]	Ki (Sigma 2 receptor) [nM]	Compound
82.9	4.91	c1ccc(CCCN2CCN(c3ccccn3)CC2)cc1
13.9	14.2	c1ccc(CCCN2CCc3ccccc3C2)cc1
5.25	6.61	CC1CCCN(CCCc2ccccc2)C1 (stereo not given)
143	25	c1ccc(CCCN2CCCCC2)cc1
3.35	12.1	CC1CCN(CCCc2ccccc2)CC1
